From US20090105261A1, “Novel substituted pyrazolo[1,5<I>A</I>]-1,3,5-Triazine derivatives and their analogues, pharmaceutical compositions containing same, use thereof as medicine and methods for preparing same” (GREENPHARMA, priority 2002, published 2009) come the findings set out here.

In data set [1] the test system is neurons cultured from fetal rat brain cortex. The experiment in a line: Neurite development in primary neuron cultures from fetal rat brain cortex. The format is cell-based. How it is done: FIG. 1 represents the effect of the molecule Ia5 on neurons in culture. The neurons are cultured in Neurobasal medium from fetal rat brain cortex according to the procedure described in example 4 and are photographed without staining 17 days after being placed in culture. Culture A is a control culture without compound. The molecule Ia5 was added to culture B on the 8th day after the placing in culture, at a concentration of 50 μM.
Compounds according to the invention were evaluated for their neurotrophic properties. The idea is therefore to observe the behavior of a neuron cell culture in the absence and presence of such molecules. The molecule called Ia5 used during this example is a molecule having the general structure Ic1, where n=2 and m=0, in the form of a sodium salt.
The adult animals are mated and the female rats are separated the following day. After 16 days, the gestating rats undergo a cesarean and the fetuses are placed in a Petri dish 100 mm in diameter. They are transferred, under a laminar flow hood, into sterile medium. The fetuses are isolated by units and are dissected under a binocular magnifying lens in sterile medium. The cerebral cortex is isolated and placed in a tube containing Neurobasal medium without antibiotic. […] The cells are counted using a Mallassez hematometer in the presence of trypan blue in order to determine the cell viability. […]

The subject of the next data set is motoneurons. Kind of data set: Motoneuron apoptosis induced by peroxynitrite. The format is cell-based. To be noted: concentration of 1 mM. How it is done:
This test was carried out according to the protocol described by Cassina P. et al. (J. Neurosci. Res. 2002 67(1): 21-9). Briefly, the oxidative stress mediated by nitric oxide and its toxic metabolite, peroxynitrite, has been associated with motoneuron degeneration, in particular in amyotrophic lateral sclerosis. The astrocytes of the spinal cord respond to extracellular concentrations of peroxynitrite by adopting a phenotype which is cytotoxic for the motoneurons. In this model of apoptosis induced by peroxynitrite, the compound sodium 4-[[1-(oxo)-3-(4-oxopyrazolo[1,5-a]-1,3,5-triazin-8-yl)propyl]amino]benzoate (Ia5) protects more than 60% of the neurons at a concentration of 1 mM.

The subject of data set [2] is rat embryonic motoneuron cells. The experiment in a line: Apoptosis induced by elimination of BDNF in primary motoneuron cultures. It counts as cell-based. Particulars: BDNF deprivation; concentration of 1 mM. On the procedure:
This test was carried out according to the protocol described by Estevez A. G. et al. (J. Neurosci. 1998, 18(3), 923-931). Briefly, when primary cultures of rat embryonic motoneuron cells are deprived of brain-derived neurotrophic factor (BDNF), an induction of neuronal nitric oxide synthase (NOS) was observed, resulting in the gradual death of the neurons by apoptosis: between 18 and 24 hours after having realized the biological preparation, more than 60% of the neurons die. In this model of induced apoptosis, the compound sodium 4-[[1-(oxo)-3-(4-oxopyrazolo[1,5-a]-1,3,5-triazin-8-yl)propyl]amino]benzoate (Ia5) protects more than 70% of the neurons at a concentration of 1 mM.

The target in a further data set is T1, PDE6 (bovine) (Bos taurus, UniProt P11541+P23439).
T1 sequence (P11541 2-856): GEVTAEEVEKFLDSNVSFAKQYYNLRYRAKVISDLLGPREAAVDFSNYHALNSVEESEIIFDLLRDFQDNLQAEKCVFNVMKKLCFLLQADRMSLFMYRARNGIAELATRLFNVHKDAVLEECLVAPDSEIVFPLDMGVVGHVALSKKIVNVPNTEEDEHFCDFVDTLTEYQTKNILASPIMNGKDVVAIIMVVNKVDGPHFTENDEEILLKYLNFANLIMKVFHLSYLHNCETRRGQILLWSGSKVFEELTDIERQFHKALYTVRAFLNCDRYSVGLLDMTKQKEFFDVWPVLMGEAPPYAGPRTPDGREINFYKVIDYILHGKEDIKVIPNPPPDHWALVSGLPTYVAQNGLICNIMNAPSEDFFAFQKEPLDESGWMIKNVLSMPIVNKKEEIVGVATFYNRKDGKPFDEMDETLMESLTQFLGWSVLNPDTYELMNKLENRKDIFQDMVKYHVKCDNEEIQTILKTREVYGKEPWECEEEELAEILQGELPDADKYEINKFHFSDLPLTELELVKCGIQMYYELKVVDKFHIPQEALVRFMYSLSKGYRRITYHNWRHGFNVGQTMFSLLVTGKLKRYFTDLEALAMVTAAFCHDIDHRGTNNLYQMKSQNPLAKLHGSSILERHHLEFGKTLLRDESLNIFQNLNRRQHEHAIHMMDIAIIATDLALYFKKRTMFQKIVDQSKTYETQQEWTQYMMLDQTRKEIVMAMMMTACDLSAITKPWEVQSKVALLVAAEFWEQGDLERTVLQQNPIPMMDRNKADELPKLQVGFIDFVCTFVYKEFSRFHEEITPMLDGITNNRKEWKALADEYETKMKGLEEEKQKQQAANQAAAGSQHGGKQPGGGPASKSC
T1 sequence (P23439 2-850): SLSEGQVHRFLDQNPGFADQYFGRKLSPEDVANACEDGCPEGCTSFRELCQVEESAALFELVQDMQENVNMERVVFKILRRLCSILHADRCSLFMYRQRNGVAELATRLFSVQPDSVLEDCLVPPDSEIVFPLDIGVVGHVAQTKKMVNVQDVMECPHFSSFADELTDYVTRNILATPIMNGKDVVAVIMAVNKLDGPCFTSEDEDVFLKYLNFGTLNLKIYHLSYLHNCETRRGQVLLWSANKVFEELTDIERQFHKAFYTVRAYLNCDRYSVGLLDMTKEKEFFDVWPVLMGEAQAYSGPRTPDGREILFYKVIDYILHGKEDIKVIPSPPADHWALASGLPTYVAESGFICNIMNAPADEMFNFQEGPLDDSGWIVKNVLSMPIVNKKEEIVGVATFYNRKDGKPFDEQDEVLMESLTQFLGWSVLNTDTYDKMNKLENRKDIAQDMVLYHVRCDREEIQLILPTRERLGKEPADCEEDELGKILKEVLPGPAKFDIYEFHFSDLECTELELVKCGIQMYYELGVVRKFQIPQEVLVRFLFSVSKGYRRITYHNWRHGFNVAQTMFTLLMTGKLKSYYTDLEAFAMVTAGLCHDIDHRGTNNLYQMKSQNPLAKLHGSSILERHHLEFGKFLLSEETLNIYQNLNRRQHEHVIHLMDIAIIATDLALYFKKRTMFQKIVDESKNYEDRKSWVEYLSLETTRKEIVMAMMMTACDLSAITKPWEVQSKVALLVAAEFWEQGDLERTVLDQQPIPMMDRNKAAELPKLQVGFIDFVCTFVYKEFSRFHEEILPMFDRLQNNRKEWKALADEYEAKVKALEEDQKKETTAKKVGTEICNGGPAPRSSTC
T1 sequence (P04972 1-87 partner): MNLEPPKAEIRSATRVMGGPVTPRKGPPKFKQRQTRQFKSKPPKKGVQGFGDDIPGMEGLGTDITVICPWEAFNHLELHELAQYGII
Kind of data set: PDE6 inhibition (selectivity). It counts as biochemical. To be noted: substrate [3H]cGMP+cGMP 2 μM. An excerpt:
(§1) cyclic nucleotide phosphodiesterases: PDE1 (bovine), PDE3 (human), PDE5 (human) and PDE6 (bovine), by following the methods described, respectively, by: (i, PDE1) Nicholson C. D., JACKMAN S. A. and WILKE R. (Brit. J. Pharmacol. 1989, 97, 889-897); (ii, PDE3 and PDE5) Weishaar, R. E., Burrows, S. D., Kobylarz, D. C., Quade, M. M. and Evans, D. B. (Biochem. Pharmacol., 1986, 35, 787-800); (iii PDE6) Ballard, A. S., Gingell, C. J., Tang, K., Turner, L. A., PRICE, M. E. (J. Urol, 1998, 159, 2164-2171). […] In the case of PDE5 and PDE 6, the substrate used is ([3H]cGMP+cGMP) at a concentration of 1 μM for PDE5 and 2 μM for PDE6. A quantitative measurement of the hydrolysis products [3H]-5′-AMP and [3H]-5′-GMP was determined by scintillation.

The next data set concerns PDE1 (bovine). The experiment in a line: PDE1 inhibition (selectivity). It counts as biochemical. To be noted: substrate [3H]cAMP+cAMP 1 μM, 30 minutes at 30° C.
Source text: as §1

Another data set concerns TNFα. The experiment in a line: TNFα in supernatants of LPS-activated venous blood mononuclear cells (PBMCs), EIA. It counts as cell-based. Particulars: PBMC, LPS 1 μg/ml, 24 hours incubation. On the procedure:
The compounds according to the invention were evaluated for their anti-inflammatory properties on venous blood mononuclear cells (PBMCs). More particularly, the cells were incubated for 24 hours in the presence of the molecule tested, after activation with lipopolysaccharide (LPS) (1 μg/ml) according to the protocol described by Schindler, R., Mancilla, J., Endres, S., Ghorbani, R., Clark, S. C. and Dinarello, C. A. (Blood, 1990, 75, 40-47). After incubation, the TNFα concentrations were measured in the culture supernatants by the EIA method.

Data set [3] has as its target T2, human phosphodiesterase type 2 (source: U-937 cells) (Homo sapiens, UniProt O00408).
T2 construct: human phosphodiesterase type 2 (source: U-937 cells); endogenous in cells; host or cells: U-937 cells
The experiment in a line: PDE2 inhibition, [3H]cAMP hydrolysis, scintillation. The format is biochemical. To be noted: substrate [3H]cAMP+cAMP 1 μM, 30 minutes at 30° C.
Method: This novel family of compounds was tested as an inhibitor of human phosphodiesterase type 2 (source: U-937 cells) by following the method described by Torphy, T. J., Zhou, H. L. and Cieslinski, L. B. (J. Pharmacol. Exp. Ther., 1992, 263, 1195-1205). […] A quantitative measurement of the hydrolysis product [3H]-5′-AMP was determined by scintillation.

T2 sequence (O00408 whole entry): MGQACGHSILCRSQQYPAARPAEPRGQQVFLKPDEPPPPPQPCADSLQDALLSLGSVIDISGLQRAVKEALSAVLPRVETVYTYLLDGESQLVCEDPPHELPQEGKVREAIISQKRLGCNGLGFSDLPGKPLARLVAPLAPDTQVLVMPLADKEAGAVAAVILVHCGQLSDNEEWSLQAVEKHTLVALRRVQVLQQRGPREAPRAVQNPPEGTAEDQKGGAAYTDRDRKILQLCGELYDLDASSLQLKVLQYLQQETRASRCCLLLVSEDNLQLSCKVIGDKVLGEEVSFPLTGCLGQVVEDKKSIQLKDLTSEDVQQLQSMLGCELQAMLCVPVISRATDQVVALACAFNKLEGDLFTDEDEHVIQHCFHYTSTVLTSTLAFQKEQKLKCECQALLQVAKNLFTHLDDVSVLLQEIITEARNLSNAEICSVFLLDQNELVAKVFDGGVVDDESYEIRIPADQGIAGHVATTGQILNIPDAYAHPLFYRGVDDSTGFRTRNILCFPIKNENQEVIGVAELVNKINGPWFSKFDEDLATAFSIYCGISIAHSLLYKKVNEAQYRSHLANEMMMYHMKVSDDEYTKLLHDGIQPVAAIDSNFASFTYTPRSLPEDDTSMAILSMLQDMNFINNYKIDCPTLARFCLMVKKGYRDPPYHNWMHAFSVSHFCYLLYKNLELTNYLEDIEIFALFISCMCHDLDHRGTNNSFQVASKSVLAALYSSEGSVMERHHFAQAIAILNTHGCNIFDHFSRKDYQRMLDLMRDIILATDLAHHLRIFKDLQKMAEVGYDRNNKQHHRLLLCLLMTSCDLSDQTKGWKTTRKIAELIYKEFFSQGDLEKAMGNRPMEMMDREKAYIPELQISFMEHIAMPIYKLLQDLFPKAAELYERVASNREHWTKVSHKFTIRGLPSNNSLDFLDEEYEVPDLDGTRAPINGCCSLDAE

For the compound `O=C(CCc1cnn2c(=O)[nH]cnc12)Nc1ccc(C(=O)[O-])cc1.[Na+]` [Ia5, Sodium 4-[[1-(oxo)-3-(4-oxopyrazolo[1,5-a]-1,3,5-triazin-8-yl)propyl]amino]benzoate], in data set [1] (50 μM added on the 8th day, photographed 17 days after being placed in culture), the “neurite morphology in culture B compared with control A (FIG. 1)” value was “thickening and an elongation of the neurites”. Besides, in data set [1] (primary fetal rat cortex neurons, test molecule at 0.1, 1 and 10 μmol/l), the “neurite development compared with control cells” value is listed as “greater neurite development than in the cells acting as control”. The neurons protected entry in the data set on motoneurons is given as “more than 60%”; in data set [2], “more than 70%”. `CCCOc1ccccc1-c1nc2nn[nH]c2c(=O)[nH]1` [zaprinast] returned an IC50 against PDE6 (bovine) of 380 nM.

On to `CCCc1nc(N(C)c2ccccc2)n2ncc(C(O)c3ccoc3)c2n1` (stereo not shown) [Ib15, 8-[(3-Furyl)(hydroxy)methyl]-4-(N-methyl-N-phenylamino)-2-n-propylpyrazolo[1,5-a]-1,3,5-triazine], for which the melting point was 142 to 144 °C.

Take `COCc1nc2c([nH]1)c(=O)n(C)c(=O)n2CC(C)C` [8-methoxy-IBMX]: half-maximal inhibition in the data set with PDE1 (bovine) (IC50) was put at 2900 nM. For `C[C@@H]1C[C@H]2[C@@H]3CCC4=CC(=O)C=C[C@]4(C)[C@@]3(F)[C@@H](O)C[C@]2(C)[C@@]1(O)C(=O)CO` [dexamethasone], in the data set with TNFα, the IC50 worked out at 4600 nM. `CCCCCC[C@@H]([C@@H](C)O)n1cnc2c(N)ncnc21` (racemic) [EHNA] had an IC50 in data set [3] of 2100 nM.

As to `CCCc1nc(N(C)c2ccccc2)n2ncc(C(O)c3cccs3)c2n1` (stereo not shown) [Ib18, 8-[(Hydroxy)(2-thienyl)methyl]-4-(N-methyl-N-phenylamino)-2-n-propylpyrazolo[1,5-a]-1,3,5-triazine], the melting point lay in the range of 150 to 152 °C.
